In patent US10525026B2, “Intravenous administration of citrulline during surgery” (Vanderbilt University, priority 2015, dated 2020):

Legend:
[1] = Revised dosing protocol for cardiac surgery, 22 patients randomized to placebo and citrulline; type: in vivo, children
Source text: The study in this example was undertaken to test a revised dosing protocol designed to achieve and maintain therapeutic citrulline levels in the face of ultrafiltration and crystalloid replacement. […] The study recruited 22 patients randomized in equal numbers of 11 patients each to placebo and citrulline arms. Early in the course of the study, it was recognized that one of the two participating centers routinely extubated all patients in the operating room immediately following cessation of cardiopulmonary bypass. This precluded use of the duration of mechanical ventilation as an endpoint. Instead, a post-hoc analysis was applied using the duration of all forms of ventilatory support as a possible endpoint. […] In contrast, contingency table analysis, shown in Table 5, did achieve borderline significance. Overall, the results are considered to represent a strong trend.

[2] = Perioperative intravenous L-citrulline pharmacokinetics, single bolus dose escalation in children undergoing congenital cardiac surgery; type: in vivo
Description: To determine clearance of a single bolus dose of IV citrulline and optimal dose frequency, a dose escalation design using three concentrations of IV citrulline: 50, 100, & 150 mg/kg was utilized. The dose of citrulline was given in the operating room immediately after cannulation and initiation of cardiopulmonary bypass. The overall goal was to achieve a sustained citrulline level of 100 μmol/L or more up to four hours after the initial dose. The four hour time point was selected to allow for the surgical procedure to be completed and the patient to return to the ICU postoperatively before further dosing.
Patients were then enrolled using this revised protocol of a combination of a bolus dose of 150 mg/kg in the OR on CPB and a continuous infusion of 9 mg/kg/hr started postop in the PICU at 4 hours after the initial bolus dose.

[3] = Intravenous citrulline in piglets: safety and effect on serum arginine levels; type: in vivo, Duroc swine; conditions: 600 mg/kg IV
Description: The objective was to assess the safety of intravenous citrulline and its effect on serum arginine levels in piglets. A total of 9 Duroc swine, aged 5-21 days, with a target minimum weight of 4 kg were utilized. All piglets underwent anesthetic induction and tracheostomy. Central lines were placed in the femoral artery and femoral vein and hemodynamics monitored continuously. Citrulline (600 mg/kg IV) was administered to 5 piglets. Saline was given to control animals. Serum amino acids were drawn before and each hour after citrulline administration.

[4] = Safety and pharmacokinetics of intravenous citrulline, open label dose escalation in children undergoing repair of congenital heart defects; type: in vivo; conditions: for concentration at 4 h: read-out: 4 hour trough citrulline level
Description: The initial goal was to test the safety and pharmacokinetics of three doses of intravenous citrulline in children undergoing surgical repair of specific congenital heart defects. […] An adverse drop in mean arterial pressure was defined as a greater than a twenty percent decrease from baseline. The baseline postoperative mean arterial blood pressure was calculated as the average of mean arterial blood pressure measurements collected every 5 minutes for the 30 minutes immediately preceding the administration of the postoperative dose or infusion.
The original doses selected were 200, 400, and 600 mg/kg based on data from previous animal studies. The original study design was a 4 arm study using the 3 doses and a placebo control.
After pharmacokinetic modeling, the study design was changed to a bolus dose of 150 mg/kg given in the OR on cardiopulmonary bypass followed 4 hours later by a continuous infusion of 9 mg/kg/hour for 48 hours. Another 9 patients were enrolled. The mean plasma levels of both citrulline and arginine in study patients (+IV citrulline) compared to patients in the observational cohort (−IV citrulline) are depicted in FIGS. 11A-B.

[5] = Randomized, placebo controlled, double blind intravenous citrulline study (77 patients); type: in vivo, children; conditions: bolus plus infusion protocol, hemofiltration during CPB
Source text: An intravenous citrulline study conducted was a randomized, placebo controlled, double blind study with the primary clinical outcome being length of mechanical ventilation postoperatively and secondarily the incidence of postoperative pulmonary hypertension between the 2 treatment groups (citrulline vs placebo).
A total of 77 patients were enrolled at Vanderbilt Children's Hospital. Patients were screened based on the surgical schedule. Based on this schedule, patients undergoing one of the 5 planned cardiac surgeries included in this study were screened (patients undergoing the Norwood procedure are now excluded at the recommendation of the DSMB).
The study was stopped in preparation for a larger multicenter randomized placebo controlled trial. […] These hemofiltration techniques had changed during the study, and the investigators were not aware of these changes.

[6] = Perioperative oral citrulline supplementation in children undergoing congenital cardiac surgery; type: in vivo
Description: 40 patients with one of the 5 surgical diagnoses identified above were randomized to receive 5 doses of oral citrulline (1.9 grams/kg) vs. placebo. The first dose was administered immediately prior to surgery and the second dose immediately on arrival in the Pediatric ICU after surgery followed every 12 hours×3 doses.

[7] = Phase IB single-blind, randomized, placebo controlled PK and safety study of IV L-citrulline in children and infants undergoing CPB; type: in vivo
Description: A multicenter, Phase IB single-blind, randomized, placebo controlled study was conducted to determine the pharmacokinetics (PK) and safety of IV L-citrulline administration to children and infants undergoing cardiopulmonary bypass (CPB) for surgical repair of congenital heart defects.
The primary objective of the study was to determine if a revised protocol of intravenous (IV) L-citrulline delivery given peri-operatively achieved a plasma citrulline level of >100 μmol/L in the group given citrulline and to compare that to citrulline levels in the placebo group, during follow-up in children undergoing surgical repair of an atrial septal defect (ASD) and/or a ventricular septal defect (VSD) or a partial or complete atrioventricular septal defect (AVSD).
Twenty two (22) patients were enrolled and treated. The patients received study drug or placebo infusion according to a fixed dosing protocol starting at the initiation of CPB until 48 hours postoperatively or until removal of the arterial line. Study participation ended at discharge or at Day 28 whichever came first. The dosing regimen was designed to maintain plasma citrulline levels in the face of extended hemofiltration.
Plasma citrulline concentration levels were the primary PK variable; these were assessed in blood samples collected at 7 perioperative time points. Secondary PK variables were concentrations of arginine and nitric oxide (NO) metabolites in the same sample set. PK values were compared between groups.
Subjects received an IV citrulline bolus of 150 mg/kg or placebo at the initiation of CPB, followed by the addition of L-citrulline at a concentration of 200 μmol/L or placebo to the filtration or hemoconcentration replacement fluid used during CPB. A citrulline bolus of 20 mg/kg was administered 30 minutes after decannulation from CPB, immediately followed by a 9-mg/kg/hr continuous infusion of citrulline or placebo for 48 hours.
Primary safety assessments included hemodynamic monitoring to identify clinically significant hypotension using age-specific limits. Adverse event information was collected, and postoperative bleeding was recorded.
Further safety, laboratory, and clinical assessments were performed from baseline to discharge, secondary clinical variables included: postoperative mechanical ventilation, duration of total respiratory support, hemodynamic improvement, postoperative PVT by echocardiogram, serum creatinine and liver enzymes, inotrope score, duration of chest tube usage, length of intensive care unit stay, length of hospitalization and survival.
The duration of postoperative invasive mechanical ventilation was derived as the time in hours from separation from cardiopulmonary bypass until endotracheal extubation. If a patient required reintubation within 24 hours after extubation, the reintubation time was added in the main analysis. In a second analysis, the reintubation time was not included.

[8] = revised dosing protocol, contingency table, 11 patients per arm
[9] = bolus 150 mg/kg at beginning of surgery, 4 hours later continuous infusion 9 mg/kg/hr
[10] = original doses 200, 400, and 600 mg/kg intravenous, five patients

SMILES: NC(=O)NCCCC(N)C(=O)O (stereo not drawn) [citrulline, 2-amino-5-(carbamoylamino)pentanoic acid]
- Systolic and diastolic blood pressure versus placebo ([1]; FIG. 18A): No significant change in systolic and diastolic blood pressure
- Mean arterial pressure versus placebo ([1]; FIG. 18B): No significant change in the mean arterial pressure
- Inotrope scores versus placebo ([1]; particularly from 15 to 18 hours onward following ICU admission): markedly better inotrope scores
- Adverse effects upon hemodynamic parameters ([1]; revised dosing protocol): No adverse effects upon hemodynamic parameters were observed
- Number of patients with Duration of Respiratory Support >50 hours [1, 8]: 2
- Number of patients with Duration of Respiratory Support ≤50 hours [1, 8]: 7
- Adverse effects including hypotension ([2]; IV bolus 50, 100, 150 mg/kg): no adverse effects including hypotension
- ½ life of the bolus doses ([2]; IV bolus 50, 100, 150 mg/kg): 60 to 90 min
- concentration at 4 h ([2]; human, plasma, 150 mg/kg IV bolus after initiation of CPB, read-out: Four hour citrulline levels): ~100 µM
- Hemodynamic instability [3]: No hemodynamic instability was observed
- Time of peak serum arginine levels following intravenous citrulline administration [3]: 1 to 2 h
- Arginine Levels Following intravenous citrulline ([3]; 1 hour post): 535.0 µmol/L
- Mean Arterial Blood Pressures Following intravenous Citrulline ([3]; 1 hour post): 67.4 mmHg
- Arginine Levels Following intravenous citrulline ([3]; 2 hours post): 559.8 µmol/L
- Mean Arterial Blood Pressures Following intravenous Citrulline ([3]; 2 hours post): 64.8 mmHg
- Arginine Levels Following intravenous citrulline ([3]; 3 hours post): 498.4 µmol/L
- Mean Arterial Blood Pressures Following intravenous Citrulline ([3]; 3 hours post): 62.2 mmHg
- Arginine Levels Following intravenous citrulline ([3]; Baseline): 131.5 µmol/L
- Mean Arterial Blood Pressures Following intravenous Citrulline ([3]; Pre-dose): 67.0 mmHg
- Adverse side effects ([4]; 50 mg/kg intravenous): No adverse side effects were noted
- Peak citrulline level ([4]; 50 mg/kg intravenous, patients 6 and 8): approximately 220 μmol/L
- Adverse side effects ([4]; 100 mg/kg intravenous): no adverse side effects were noted
- Peak citrulline level ([4]; 100 mg/kg intravenous, patients 9 & 10): 375 µmol/L
- Peak citrulline level ([4]; 150 mg/kg intravenous, patients 13-16): 660 µmol/L
- Adverse side effects [4, 9]: No adverse side effects were noted
- Sustained plasma citrulline levels [4, 9]: around 100 μmol/L
- Significant adverse events ([4]; bolus 150 mg/kg on CPB, 4 hours later infusion 9 mg/kg/hour for 48 hours): one significant adverse event but it was not related to the use of IV citrulline
- concentration at 4 h ([4]; human, plasma, 50 mg/kg intravenous, patients 6 and 8): 40 µM
- concentration at 4 h ([4]; human, plasma, 100 mg/kg intravenous, patients 9 & 10): 50 µM
- concentration at 4 h ([4]; human, plasma, 150 mg/kg intravenous, patients 13-16): 80 µM
- half-life ([4]; human, plasma, intravenous bolus 50, 100, 150 mg/kg): ~1.42 h
- Adverse effects [4, 10]: no adverse effects were noted
- Plasma levels achieved [4, 10]: very high
- Reaching the sustained target plasma citrulline level of 100 μmol/L [5]: a majority who received citrulline did not reach the therapeutic sustained target plasma citrulline level
- Tolerability / adverse events of oral citrulline ([6]; 1.9 g/kg before CPB, postoperatively and every 12 hours for 48 hours): well tolerated with no evidence of significant adverse events
- Plasma citrulline levels ([6]; 5 doses of 1.9 grams/kg, vs. placebo 26, p=0.013): 36 µmol/L
- Plasma citrulline levels ([7]; bolus 150 mg/kg, 200 μmol/L in filtration fluid, bolus 20 mg/kg, infusion 9 mg/kg/hr for 48 hours): > 100 µmol/L
- Sustained plasma citrulline levels ([7]; bolus 150 mg/kg, 200 μmol/L in priming and hemofiltration fluid, bolus 20 mg/kg, infusion 9 mg/kg/hr for 48 hours): around 100 μmol/L
- Duration of invasive mechanical ventilation, Kaplan-Meier analysis versus placebo ([7]; excluding re-intubation, Wilcoxon p=0.0222, ANOVA t-test p=0.0317): reduced duration of mechanical ventilation
- Mean duration of invasive mechanical ventilation ([7]; including the reintubation time, placebo 37 hours): 5 h
- Composite durations of mechanical ventilation and inotrope therapy versus placebo ([7]; longer of the two durations, surrogate for ICU stay): shorter composite durations of mechanical ventilation and inotrope therapy
- Patients extubated in the operating room ([7]; one site, 6 patients per group, placebo 33%): 100%
